Source: paper PMC11314561, “Design and Synthesis of Novel Aminoindazole-pyrrolo[2,3-b]pyridine Inhibitors of IKKα That Selectively Perturb Cellular Non-Canonical NF-κB Signalling” (Molecules, 2024)
One block for each compound: values may come before it.

Assays:
Experiment in all cases: kinase panel
Type in all cases: biochemical
PKCβII(h) = PKCβII(h) (Homo sapiens, UniProt P05771)
How it was run: (§1)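 Values are percent inhibition from kinome-wide profiling of three series compounds across 231 kinases, with a structurally similar analogue tested on only 98 selected kinases.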

Txk(h) = Txk(h) (Homo sapiens, UniProt P42681)
How it was run: as §1

MAPK2(h) = MAPK2(h) (Homo sapiens, UniProt P28482)
How it was run: as §1

Ron(h) = Ron(h) (Homo sapiens, UniProt Q04912)
How it was run: as §1

Fyn(h) = Fyn(h) (Homo sapiens, UniProt P06241)
How it was run: as §1

Tie2 (h) = Tie2 (h) (Homo sapiens, UniProt Q02763)
How it was run: as §1

EphB3(h) = EphB3(h) (Homo sapiens, UniProt P54753)
How it was run: as §1

LOK(h) = LOK(h) (Homo sapiens, UniProt O94804)
How it was run: as §1

PAK6(h) = PAK6(h) (Homo sapiens, UniProt Q9NQU5)
How it was run: as §1

Fgr(h) = Fgr(h) (Homo sapiens, UniProt P09769)
How it was run: as §1

SGK3(h) = SGK3(h) (Homo sapiens, UniProt Q96BR1)
How it was run: as §1

RIPK2(h) = RIPK2(h) (Homo sapiens, UniProt O43353)
How it was run: as §1

PTK5(h) = PTK5(h) (Homo sapiens, UniProt P42685)
How it was run: as §1

TSSK1(h) = TSSK1(h) (Homo sapiens, UniProt Q9BXA7)
How it was run: as §1

DRAK1(h) = DRAK1(h) (Homo sapiens, UniProt Q9UEE5)
How it was run: as §1

EphA4(h) = EphA4(h) (Homo sapiens, UniProt P54764)
How it was run: as §1

MLK1(h) = MLK1(h) (Homo sapiens, UniProt P80192)
How it was run: as §1

EphA5(h) = EphA5(h) (Homo sapiens, UniProt P54756)
How it was run: as §1

FGFR2(h) = FGFR2(h) (Homo sapiens, UniProt P21802)
How it was run: as §1

PKBβ(h) = PKBβ(h) (Homo sapiens, UniProt P31751)
How it was run: as §1

Pim-2(h) = Pim-2(h) (Homo sapiens, UniProt Q9P1W9)
How it was run: as §1

PASK(h) = PASK(h) (Homo sapiens, UniProt Q96RG2)
How it was run: as §1

Tec(h) activated = Tec(h) activated (Homo sapiens, UniProt P42680)
How it was run: as §1

ULK3(h) = ULK3(h) (Homo sapiens, UniProt Q6PHR2)
How it was run: as §1

CK1γ1(h) = CK1γ1(h) (Homo sapiens, UniProt Q9HCP0)
How it was run: as §1

STK33(h) = STK33(h) (Homo sapiens, UniProt Q9BYT3)
How it was run: as §1

PKCδ(h) = PKCδ(h) (Homo sapiens, UniProt Q05655)
How it was run: as §1

CLK3(h) = CLK3(h) (Homo sapiens, UniProt P49761)
How it was run: as §1

Pyk2(h) = Pyk2(h) (Homo sapiens, UniProt Q14289)
How it was run: as §1

PKCγ(h) = PKCγ(h) (Homo sapiens, UniProt P05129)
How it was run: as §1

EphB1(h) = EphB1(h) (Homo sapiens, UniProt P54762)
How it was run: as §1

Fer(h) = Fer(h) (Homo sapiens, UniProt P16591)
How it was run: as §1

Blk(h) = Blk(h) (Homo sapiens, UniProt P51451)
How it was run: as §1

Hck(h) = Hck(h) (Homo sapiens, UniProt P08631)
How it was run: as §1

PKBγ(h) = PKBγ(h) (Homo sapiens, UniProt Q9Y243)
How it was run: as §1

EphA8(h) = EphA8(h) (Homo sapiens, UniProt P29322)
How it was run: as §1

WNK3(h) = WNK3(h) (Homo sapiens, UniProt Q9BYP7)
How it was run: as §1

DCAMKL2(h) = DCAMKL2(h) (Homo sapiens, UniProt Q8N568)
How it was run: as §1

Snk(h) = Snk(h) (Homo sapiens, UniProt Q9NYY3)
How it was run: as §1

WNK2(h) = WNK2(h) (Homo sapiens, UniProt Q9Y3S1)
How it was run: as §1

FAK(h) = FAK(h) (Homo sapiens, UniProt Q05397)
How it was run: as §1

HIPK3(h) = HIPK3(h) (Homo sapiens, UniProt Q9H422)
How it was run: as §1

Sequence of Pyk2(h) (Q14289 whole entry): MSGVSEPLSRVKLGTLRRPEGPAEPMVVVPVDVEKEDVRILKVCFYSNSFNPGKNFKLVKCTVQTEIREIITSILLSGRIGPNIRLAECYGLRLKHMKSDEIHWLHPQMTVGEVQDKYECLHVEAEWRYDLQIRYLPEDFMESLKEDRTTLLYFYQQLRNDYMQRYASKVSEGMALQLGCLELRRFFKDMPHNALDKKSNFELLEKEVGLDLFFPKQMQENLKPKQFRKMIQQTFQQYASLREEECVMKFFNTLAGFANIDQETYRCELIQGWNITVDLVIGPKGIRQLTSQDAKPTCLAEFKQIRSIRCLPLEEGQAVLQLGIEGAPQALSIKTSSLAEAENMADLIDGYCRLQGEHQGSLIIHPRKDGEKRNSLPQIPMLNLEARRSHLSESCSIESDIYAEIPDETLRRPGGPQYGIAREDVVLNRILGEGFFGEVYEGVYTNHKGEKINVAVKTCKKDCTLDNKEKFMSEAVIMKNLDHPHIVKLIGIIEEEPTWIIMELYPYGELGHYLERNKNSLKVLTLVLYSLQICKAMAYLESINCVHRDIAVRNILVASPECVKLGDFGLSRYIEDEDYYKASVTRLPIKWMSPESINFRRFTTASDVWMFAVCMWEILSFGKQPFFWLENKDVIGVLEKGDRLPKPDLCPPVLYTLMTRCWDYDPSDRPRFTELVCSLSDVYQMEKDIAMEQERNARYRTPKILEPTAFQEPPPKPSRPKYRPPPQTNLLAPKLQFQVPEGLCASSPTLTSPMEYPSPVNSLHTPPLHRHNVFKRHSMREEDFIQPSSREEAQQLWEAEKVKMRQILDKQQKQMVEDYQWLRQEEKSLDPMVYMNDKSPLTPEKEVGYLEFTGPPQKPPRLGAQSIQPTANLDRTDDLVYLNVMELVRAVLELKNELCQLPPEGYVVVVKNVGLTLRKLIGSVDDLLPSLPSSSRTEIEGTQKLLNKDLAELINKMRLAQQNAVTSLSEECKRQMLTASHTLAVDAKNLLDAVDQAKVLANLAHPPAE
Sequence of Blk(h) (P51451 whole entry): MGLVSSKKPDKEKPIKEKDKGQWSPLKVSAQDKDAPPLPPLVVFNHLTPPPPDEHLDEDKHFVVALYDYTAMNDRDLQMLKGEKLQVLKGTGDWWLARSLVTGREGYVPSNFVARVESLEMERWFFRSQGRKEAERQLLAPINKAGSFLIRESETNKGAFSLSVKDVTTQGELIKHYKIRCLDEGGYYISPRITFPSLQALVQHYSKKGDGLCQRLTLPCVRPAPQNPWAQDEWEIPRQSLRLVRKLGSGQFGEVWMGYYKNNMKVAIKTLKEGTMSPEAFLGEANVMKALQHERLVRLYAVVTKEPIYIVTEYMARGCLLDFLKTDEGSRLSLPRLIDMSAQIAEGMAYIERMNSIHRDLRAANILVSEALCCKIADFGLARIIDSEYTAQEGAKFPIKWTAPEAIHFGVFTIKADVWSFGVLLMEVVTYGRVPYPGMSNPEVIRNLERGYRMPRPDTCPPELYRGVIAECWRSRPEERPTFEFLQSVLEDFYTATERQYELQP
Sequence of Fgr(h) (P09769 whole entry): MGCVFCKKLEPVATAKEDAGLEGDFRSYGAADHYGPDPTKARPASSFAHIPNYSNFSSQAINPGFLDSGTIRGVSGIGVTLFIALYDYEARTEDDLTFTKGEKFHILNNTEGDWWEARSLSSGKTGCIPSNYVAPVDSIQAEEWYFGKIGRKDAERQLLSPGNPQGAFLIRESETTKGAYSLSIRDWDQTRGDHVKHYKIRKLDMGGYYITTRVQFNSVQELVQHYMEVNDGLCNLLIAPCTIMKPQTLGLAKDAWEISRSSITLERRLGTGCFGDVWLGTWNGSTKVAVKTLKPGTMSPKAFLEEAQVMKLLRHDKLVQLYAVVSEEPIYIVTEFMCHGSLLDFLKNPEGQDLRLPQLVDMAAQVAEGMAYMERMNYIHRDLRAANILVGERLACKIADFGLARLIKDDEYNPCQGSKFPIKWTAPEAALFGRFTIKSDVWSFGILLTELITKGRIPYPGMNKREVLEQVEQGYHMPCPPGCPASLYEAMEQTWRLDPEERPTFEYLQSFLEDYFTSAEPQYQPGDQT
Sequence of FAK(h) (Q05397 whole entry): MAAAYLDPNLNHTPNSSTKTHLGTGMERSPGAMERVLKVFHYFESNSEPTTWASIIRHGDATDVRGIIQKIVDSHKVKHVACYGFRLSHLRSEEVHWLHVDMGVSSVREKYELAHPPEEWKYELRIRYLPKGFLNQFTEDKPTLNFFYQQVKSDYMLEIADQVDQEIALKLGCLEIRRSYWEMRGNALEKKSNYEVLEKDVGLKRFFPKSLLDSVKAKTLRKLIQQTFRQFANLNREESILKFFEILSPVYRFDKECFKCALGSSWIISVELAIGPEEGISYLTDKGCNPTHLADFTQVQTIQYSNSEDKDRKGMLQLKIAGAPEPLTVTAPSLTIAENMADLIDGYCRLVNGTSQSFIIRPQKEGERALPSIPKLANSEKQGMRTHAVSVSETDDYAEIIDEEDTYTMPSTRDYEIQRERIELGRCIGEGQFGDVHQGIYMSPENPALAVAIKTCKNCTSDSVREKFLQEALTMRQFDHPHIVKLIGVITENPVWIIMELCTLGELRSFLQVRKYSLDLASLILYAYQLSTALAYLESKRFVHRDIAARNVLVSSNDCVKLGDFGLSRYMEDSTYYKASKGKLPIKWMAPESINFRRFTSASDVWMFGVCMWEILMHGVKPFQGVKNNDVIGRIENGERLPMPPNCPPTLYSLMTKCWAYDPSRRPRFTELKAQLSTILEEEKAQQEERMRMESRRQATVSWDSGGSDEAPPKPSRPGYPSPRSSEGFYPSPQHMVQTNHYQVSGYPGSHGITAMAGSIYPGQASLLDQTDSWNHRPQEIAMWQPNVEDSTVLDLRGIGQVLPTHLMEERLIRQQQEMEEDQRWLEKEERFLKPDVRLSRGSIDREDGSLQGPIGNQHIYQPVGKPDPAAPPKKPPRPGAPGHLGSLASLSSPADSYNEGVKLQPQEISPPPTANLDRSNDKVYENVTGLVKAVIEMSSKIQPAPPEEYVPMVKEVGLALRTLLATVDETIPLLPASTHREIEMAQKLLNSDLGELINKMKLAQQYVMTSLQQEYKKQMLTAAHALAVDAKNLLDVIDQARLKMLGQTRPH
Sequence of PAK6(h) (Q9NQU5 whole entry): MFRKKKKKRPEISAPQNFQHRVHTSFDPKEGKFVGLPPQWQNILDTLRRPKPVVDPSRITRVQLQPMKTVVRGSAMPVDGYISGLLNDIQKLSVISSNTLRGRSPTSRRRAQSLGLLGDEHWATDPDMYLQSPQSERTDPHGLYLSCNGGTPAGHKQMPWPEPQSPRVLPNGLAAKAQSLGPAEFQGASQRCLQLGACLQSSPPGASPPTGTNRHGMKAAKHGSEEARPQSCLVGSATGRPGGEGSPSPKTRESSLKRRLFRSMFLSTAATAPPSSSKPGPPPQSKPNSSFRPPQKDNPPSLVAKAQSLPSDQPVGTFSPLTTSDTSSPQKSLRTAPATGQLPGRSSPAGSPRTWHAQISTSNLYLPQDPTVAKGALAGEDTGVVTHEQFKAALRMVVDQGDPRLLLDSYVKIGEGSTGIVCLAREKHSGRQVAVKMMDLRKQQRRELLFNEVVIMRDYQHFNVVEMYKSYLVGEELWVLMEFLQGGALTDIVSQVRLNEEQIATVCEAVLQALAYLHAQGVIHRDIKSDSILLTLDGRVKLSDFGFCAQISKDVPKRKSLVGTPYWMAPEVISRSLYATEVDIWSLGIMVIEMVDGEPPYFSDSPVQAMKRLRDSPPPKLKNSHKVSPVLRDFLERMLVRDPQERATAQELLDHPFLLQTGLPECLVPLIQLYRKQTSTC
Sequence of STK33(h) (Q9BYT3 whole entry): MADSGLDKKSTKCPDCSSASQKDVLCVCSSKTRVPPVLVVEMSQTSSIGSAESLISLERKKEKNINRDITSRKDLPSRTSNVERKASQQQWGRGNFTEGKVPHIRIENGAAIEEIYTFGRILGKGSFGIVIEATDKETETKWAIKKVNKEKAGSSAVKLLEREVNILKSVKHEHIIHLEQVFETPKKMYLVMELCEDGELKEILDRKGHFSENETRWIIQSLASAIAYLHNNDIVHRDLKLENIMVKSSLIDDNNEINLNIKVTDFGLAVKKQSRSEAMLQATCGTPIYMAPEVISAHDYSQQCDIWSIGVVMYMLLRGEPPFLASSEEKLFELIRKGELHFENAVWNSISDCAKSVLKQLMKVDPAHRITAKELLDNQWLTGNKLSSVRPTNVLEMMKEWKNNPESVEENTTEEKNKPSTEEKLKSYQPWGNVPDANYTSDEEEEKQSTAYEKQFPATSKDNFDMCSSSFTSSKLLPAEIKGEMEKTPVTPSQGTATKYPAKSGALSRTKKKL

inhibition at 1 µM (PKCβII(h)): 9% | inhibition at 1 µM (Txk(h)): 43% | inhibition at 1 µM (MAPK2(h)): 29% | inhibition at 1 µM (Ron(h)): 53% | inhibition at 1 µM (Fyn(h)): 64% | inhibition at 1 µM (Tie2 (h)): 55% | inhibition at 1 µM (EphB3(h)): 8% | inhibition at 1 µM (LOK(h)): 67% | inhibition at 1 µM (PAK6(h)): 32% | inhibition at 1 µM (Fgr(h)): 54% | inhibition at 1 µM (SGK3(h)): -8% | inhibition at 1 µM (RIPK2(h)): 54% | inhibition at 1 µM (PTK5(h)): 74% | inhibition at 1 µM (TSSK1(h)): 34% | inhibition at 1 µM (DRAK1(h)): 67% | inhibition at 1 µM (EphA4(h)): 9% | inhibition at 1 µM (MLK1(h)): 79% | inhibition at 1 µM (EphA5(h)): 19% | inhibition at 1 µM (FGFR2(h)): 79% | inhibition at 1 µM (PKBβ(h)): 3% | inhibition at 1 µM (Pim-2(h)): 25% | inhibition at 1 µM (PASK(h)): 65% | inhibition at 1 µM (Tec(h) activated): 29% | inhibition at 1 µM (ULK3(h)): 48% | inhibition at 1 µM (CK1γ1(h)): 20% | inhibition at 1 µM (STK33(h)): 38% | inhibition at 1 µM (PKCδ(h)): 16% | inhibition at 1 µM (CLK3(h)): 74% | inhibition at 1 µM (Pyk2(h)): 63% | inhibition at 1 µM (PKCγ(h)): -5% | inhibition at 1 µM (EphB1(h)): 63% | inhibition at 1 µM (Fer(h)): 7% | inhibition at 1 µM (Blk(h)): 37% | inhibition at 1 µM (Hck(h)): 21% | inhibition at 1 µM (PKBγ(h)): 12% | inhibition at 1 µM (EphA8(h)): -2% | inhibition at 1 µM (WNK3(h)): 20% | inhibition at 1 µM (DCAMKL2(h)): 33% | inhibition at 1 µM (Snk(h)): 1% | inhibition at 1 µM (WNK2(h)): 29% | inhibition at 1 µM (FAK(h)): 35% | inhibition at 1 µM (HIPK3(h)): 26%
Structure (SMILES): Nc1n[nH]c2ccc(-c3ccnc4[nH]c(-c5ccccc5)cc34)cc12 [Compound 4]

inhibition at 1 µM (PKCβII(h)): -1% | inhibition at 1 µM (Txk(h)): 27% | inhibition at 1 µM (MAPK2(h)): -1% | inhibition at 1 µM (Ron(h)): 7% | inhibition at 1 µM (Fyn(h)): 33% | inhibition at 1 µM (Tie2 (h)): 18% | inhibition at 1 µM (EphB3(h)): -4% | inhibition at 1 µM (LOK(h)): 51% | inhibition at 1 µM (PAK6(h)): 22% | inhibition at 1 µM (Fgr(h)): 33% | inhibition at 1 µM (SGK3(h)): -27% | inhibition at 1 µM (RIPK2(h)): 19% | inhibition at 1 µM (PTK5(h)): 29% | inhibition at 1 µM (TSSK1(h)): 14% | inhibition at 1 µM (DRAK1(h)): 24% | inhibition at 1 µM (EphA4(h)): 2% | inhibition at 1 µM (MLK1(h)): 56% | inhibition at 1 µM (EphA5(h)): 8% | inhibition at 1 µM (FGFR2(h)): 39% | inhibition at 1 µM (PKBβ(h)): -5% | inhibition at 1 µM (Pim-2(h)): 5% | inhibition at 1 µM (PASK(h)): 16% | inhibition at 1 µM (Tec(h) activated): 62% | inhibition at 1 µM (ULK3(h)): 14% | inhibition at 1 µM (CK1γ1(h)): 10% | inhibition at 1 µM (STK33(h)): 25% | inhibition at 1 µM (PKCδ(h)): 6% | inhibition at 1 µM (CLK3(h)): 23% | inhibition at 1 µM (Pyk2(h)): 22% | inhibition at 1 µM (PKCγ(h)): -2% | inhibition at 1 µM (EphB1(h)): 14% | inhibition at 1 µM (Fer(h)): -16% | inhibition at 1 µM (Blk(h)): -4% | inhibition at 1 µM (Hck(h)): 16% | inhibition at 1 µM (PKBγ(h)): 0% | inhibition at 1 µM (EphA8(h)): -7% | inhibition at 1 µM (WNK3(h)): 17% | inhibition at 1 µM (DCAMKL2(h)): 6% | inhibition at 1 µM (Snk(h)): -2% | inhibition at 1 µM (WNK2(h)): 22% | inhibition at 1 µM (FAK(h)): 8% | inhibition at 1 µM (HIPK3(h)): 6%
Structure (SMILES): Nc1n[nH]c2ccc(-c3ccnc4[nH]c(-c5cccc(OCc6ccccc6)c5)cc34)cc12 [Compound 5r [SU1261]]
